Source: ChEMBL document CHEMBL2331372, “Design and synthesis of D₁ agonist/D₂ antagonist for treatment of schizophrenia” (Bioorg Med Chem Lett, 2013)

Key:
D(2) dopamine receptor [1] = molecular target: T1, D(2) dopamine receptor (Homo sapiens, UniProt P14416); assay: Displacement of [3H]N-methylspiperone from dopamine D2 receptor (unknown origin) expressed in CHO cell membranes after 60 mins
D(2) dopamine receptor [2] = molecular target: T1, D(2) dopamine receptor; assay: Antagonist activity at dopamine D2 receptor (unknown origin) transfected in CHO cell membranes assessed as inhibition of forskolin-stimulated cAMP level after 10 mins by flash plate assay in presence of dopamine; format: functional, cell-based
D(1A) dopamine receptor [3] = molecular target: T2, D(1A) dopamine receptor (Homo sapiens, UniProt P21728); assay: Agonist activity at dopamine D1 receptor (unknown origin) transfected in CHO cell membranes assessed as increase in cAMP level after 8 mins by flash plate assay in presence of dopamine; format: functional, cell-based
D(1A) dopamine receptor [4] = molecular target: T2, D(1A) dopamine receptor; assay: Displacement of [3H]SCH23390 from dopamine D1 receptor (unknown origin) expressed in CHO cell membranes after 60 mins
Mus musculus [5] = assay: In vivo receptor occupancy of dopamine D2 receptor in CD1 mouse striatum assessed as inhibition of [3H]N-methylspiperone binding at 10 mg/kg, sc after 15 mins by scintillation counting analysis; format: functional; details: route subcutaneous
Mus musculus [6] = assay: In vivo receptor occupancy of dopamine D1 receptor in CD1 mouse striatum assessed as inhibition of [3H]SCH23390 binding at 10 mg/kg, sc after 15 mins by scintillation counting analysis; format: functional; details: route subcutaneous
Cytochrome P450 2D6 = Cytochrome P450 2D6 (Homo sapiens, UniProt P10635); assay: Inhibition of CYP2D6 (unknown origin); format: ADME
Cytochrome P450 2C9 = Cytochrome P450 2C9 (Homo sapiens, UniProt P11712); assay: Inhibition of CYP2C9 (unknown origin); format: ADME
Cytochrome P450 2C19 = Cytochrome P450 2C19 (Homo sapiens, UniProt P33261); assay: Inhibition of CYP2C19 (unknown origin); format: ADME
Cytochrome P450 1A2 = molecular target: T3, Cytochrome P450 1A2 (Homo sapiens, UniProt P05177); assay: Inhibition of CYP1A2 (unknown origin); format: ADME
T3 sequence (P05177 whole entry): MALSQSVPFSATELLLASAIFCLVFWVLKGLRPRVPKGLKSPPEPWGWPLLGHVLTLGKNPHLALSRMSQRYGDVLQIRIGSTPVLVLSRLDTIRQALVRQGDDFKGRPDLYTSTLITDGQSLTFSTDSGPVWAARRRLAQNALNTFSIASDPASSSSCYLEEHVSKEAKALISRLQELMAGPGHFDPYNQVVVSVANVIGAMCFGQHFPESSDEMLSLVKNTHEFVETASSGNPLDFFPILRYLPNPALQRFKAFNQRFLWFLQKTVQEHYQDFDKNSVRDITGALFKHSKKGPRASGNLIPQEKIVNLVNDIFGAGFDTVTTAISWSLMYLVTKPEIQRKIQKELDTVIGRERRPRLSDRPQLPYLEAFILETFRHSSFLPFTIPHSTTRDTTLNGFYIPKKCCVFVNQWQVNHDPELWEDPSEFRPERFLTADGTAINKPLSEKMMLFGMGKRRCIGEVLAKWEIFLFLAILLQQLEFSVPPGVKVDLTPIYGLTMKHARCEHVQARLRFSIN

Cytochrome P450 3A4 = Cytochrome P450 3A4 (Homo sapiens, UniProt P08684); assay: Inhibition of CYP3A4 (unknown origin); format: ADME
Cytochrome P450 3A4, sequence (P08684 whole entry): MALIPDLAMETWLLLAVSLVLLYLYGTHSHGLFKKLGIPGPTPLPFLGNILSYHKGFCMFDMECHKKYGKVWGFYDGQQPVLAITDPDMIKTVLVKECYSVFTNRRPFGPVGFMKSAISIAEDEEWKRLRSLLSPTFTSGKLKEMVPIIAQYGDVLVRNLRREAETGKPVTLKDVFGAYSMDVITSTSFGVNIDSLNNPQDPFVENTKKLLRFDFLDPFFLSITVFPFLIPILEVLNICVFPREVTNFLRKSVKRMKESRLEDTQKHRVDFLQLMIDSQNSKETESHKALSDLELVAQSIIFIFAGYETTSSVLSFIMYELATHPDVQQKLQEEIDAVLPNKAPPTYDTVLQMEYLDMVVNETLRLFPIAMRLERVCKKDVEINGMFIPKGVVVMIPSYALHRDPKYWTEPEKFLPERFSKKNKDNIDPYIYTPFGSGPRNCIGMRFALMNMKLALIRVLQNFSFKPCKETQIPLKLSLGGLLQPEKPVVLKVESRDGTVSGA

T2 sequence (P21728 whole entry): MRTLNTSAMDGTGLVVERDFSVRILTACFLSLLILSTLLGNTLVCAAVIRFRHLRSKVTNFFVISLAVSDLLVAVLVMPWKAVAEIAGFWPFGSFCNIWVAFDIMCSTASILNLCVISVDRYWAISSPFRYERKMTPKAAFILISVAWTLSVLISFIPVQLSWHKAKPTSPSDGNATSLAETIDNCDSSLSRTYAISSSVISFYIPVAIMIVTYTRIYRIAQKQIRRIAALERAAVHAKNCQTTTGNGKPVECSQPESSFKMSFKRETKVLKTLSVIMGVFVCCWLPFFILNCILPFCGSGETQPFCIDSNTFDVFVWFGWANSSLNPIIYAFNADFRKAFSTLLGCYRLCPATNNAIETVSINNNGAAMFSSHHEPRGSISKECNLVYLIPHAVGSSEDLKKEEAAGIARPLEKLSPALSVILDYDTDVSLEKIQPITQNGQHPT
T1 sequence (P14416 whole entry): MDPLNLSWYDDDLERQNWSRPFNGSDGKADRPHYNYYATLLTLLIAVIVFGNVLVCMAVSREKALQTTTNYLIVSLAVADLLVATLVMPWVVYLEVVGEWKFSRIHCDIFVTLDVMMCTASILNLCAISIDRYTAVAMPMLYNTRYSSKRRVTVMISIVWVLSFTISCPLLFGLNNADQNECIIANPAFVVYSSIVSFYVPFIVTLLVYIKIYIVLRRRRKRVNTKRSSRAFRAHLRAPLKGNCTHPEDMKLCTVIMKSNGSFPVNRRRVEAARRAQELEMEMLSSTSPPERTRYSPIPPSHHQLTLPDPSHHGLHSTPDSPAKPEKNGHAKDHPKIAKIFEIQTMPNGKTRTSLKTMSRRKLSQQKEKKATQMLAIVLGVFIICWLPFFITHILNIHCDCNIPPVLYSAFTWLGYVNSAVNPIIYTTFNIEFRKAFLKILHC
Cytochrome P450 2C9, sequence (P11712 whole entry): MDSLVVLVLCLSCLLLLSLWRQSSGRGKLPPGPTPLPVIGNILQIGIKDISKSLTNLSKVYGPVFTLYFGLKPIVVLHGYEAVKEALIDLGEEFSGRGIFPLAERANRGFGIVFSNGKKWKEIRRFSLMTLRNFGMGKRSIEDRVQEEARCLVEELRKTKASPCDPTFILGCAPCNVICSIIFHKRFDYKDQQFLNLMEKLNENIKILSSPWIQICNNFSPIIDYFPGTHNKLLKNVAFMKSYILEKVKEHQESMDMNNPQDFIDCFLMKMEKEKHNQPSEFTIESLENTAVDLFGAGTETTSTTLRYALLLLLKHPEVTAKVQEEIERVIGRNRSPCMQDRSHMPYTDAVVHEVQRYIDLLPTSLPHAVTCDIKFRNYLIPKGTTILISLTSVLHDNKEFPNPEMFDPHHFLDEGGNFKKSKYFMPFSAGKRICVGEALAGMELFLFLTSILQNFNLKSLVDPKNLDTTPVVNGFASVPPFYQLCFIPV
Cytochrome P450 2C19, sequence (P33261 whole entry): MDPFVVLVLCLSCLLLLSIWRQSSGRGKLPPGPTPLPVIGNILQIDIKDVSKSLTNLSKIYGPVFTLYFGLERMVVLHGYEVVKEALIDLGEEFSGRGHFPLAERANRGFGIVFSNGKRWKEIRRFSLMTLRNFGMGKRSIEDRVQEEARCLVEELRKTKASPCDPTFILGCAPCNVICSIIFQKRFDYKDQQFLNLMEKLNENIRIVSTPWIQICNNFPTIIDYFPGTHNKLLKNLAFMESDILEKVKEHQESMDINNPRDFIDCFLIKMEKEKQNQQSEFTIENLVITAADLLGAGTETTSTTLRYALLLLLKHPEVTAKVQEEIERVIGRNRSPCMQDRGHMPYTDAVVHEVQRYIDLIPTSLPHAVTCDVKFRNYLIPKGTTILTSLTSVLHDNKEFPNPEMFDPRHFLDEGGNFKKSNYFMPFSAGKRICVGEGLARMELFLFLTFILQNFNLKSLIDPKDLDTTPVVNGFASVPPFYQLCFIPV
Cytochrome P450 2D6, sequence (P10635 whole entry): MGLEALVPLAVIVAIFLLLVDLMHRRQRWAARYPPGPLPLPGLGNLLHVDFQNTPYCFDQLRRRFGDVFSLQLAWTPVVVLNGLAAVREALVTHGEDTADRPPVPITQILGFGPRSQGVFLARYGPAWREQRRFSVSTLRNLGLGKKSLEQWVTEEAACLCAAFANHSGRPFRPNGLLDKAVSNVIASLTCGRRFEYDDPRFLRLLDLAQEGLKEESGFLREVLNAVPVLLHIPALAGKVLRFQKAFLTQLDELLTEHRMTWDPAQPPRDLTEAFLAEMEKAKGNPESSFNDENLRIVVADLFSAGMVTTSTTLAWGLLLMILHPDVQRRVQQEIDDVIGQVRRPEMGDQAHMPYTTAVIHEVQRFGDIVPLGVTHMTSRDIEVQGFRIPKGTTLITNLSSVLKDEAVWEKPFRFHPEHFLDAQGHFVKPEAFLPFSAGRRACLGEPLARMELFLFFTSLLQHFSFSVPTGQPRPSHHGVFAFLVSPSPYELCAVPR

Row | Ki (D(2) dopamine receptor [1]) | IC50 (D(2) dopamine receptor [2]) | EC50 (D(1A) dopamine receptor [3]; read-out: EC50) | Ki (D(1A) dopamine receptor [4]) | IC50 (Cytochrome P450 2D6) | inhibition (INH) (Cytochrome P450 2C9) | inhibition (INH) (Cytochrome P450 2C19) | inhibition (INH) (Cytochrome P450 1A2) | inhibition (INH) (Cytochrome P450 3A4) | EC50 (D(1A) dopamine receptor [3]; cho) | Structure (SMILES) | Occ (Mus musculus [5]) | Occ (Mus musculus [6])
1 | 132 nM | 150 nM | 750 nM | 45.9 nM | – | – | – | – | – | – | Cc1cc2c(cc1O)[C@H]1C[C@](O)(c3ccc(Cl)cc3)CCN1CC2 | – | –
2 | 4 nM | 6 nM | 5 nM | 2 nM | 840 nM | Not Active | Not Active | Not Active | Not Active | – | COc1cc2c(cc1O)[C@H]1C[C@@](O)(c3ccc(OC(F)(F)F)cc3)CCN1CC2 | 75% | 95%
3 | 12.3 nM | 220 nM | 11 nM | 5.5 nM | – | – | – | – | – | – | Cc1cc2c(cc1O)[C@H]1C[C@@](O)(c3ccc(Cl)cc3)CCN1CC2 | – | –
4 | 195 nM | 1010 nM | – | 252 nM | – | – | – | – | – | Not Active | COc1ccc2c(c1)CCN1CC[C@](O)(c3ccc(Cl)cc3)C[C@H]21 | – | –
5 | > 10000 nM | – | – | 3340 nM | – | – | – | – | – | Not Active | COc1ccc2c(c1)CCN1CC[C@@](O)(c3ccc(Cl)cc3)C[C@H]21 | – | –
6 | 14.8 nM | – | 8 nM | 4 nM | – | – | – | – | – | – | COc1cc2c(cc1O)[C@H]1C[C@@](O)(c3ccc(Cl)cc3)CCN1CC2 | – | –
7 | 101 nM | 380 nM | – | 244 nM | – | – | – | – | – | Not Active | COc1cc2c(cc1O)[C@H]1C[C@](O)(c3ccc(Cl)cc3)CCN1CC2 | – | –
